The source made the active and inactive calls.
Legend:
[1] = biological target: T1, Insulin-degrading enzyme (Homo sapiens, UniProt P14735); test: activators of recombinant IDE enzyme, dose response, counter-screen for IDE activator project, biochemical, fluorescence polarization (AID 588681)
T1 sequence (P14735 whole entry): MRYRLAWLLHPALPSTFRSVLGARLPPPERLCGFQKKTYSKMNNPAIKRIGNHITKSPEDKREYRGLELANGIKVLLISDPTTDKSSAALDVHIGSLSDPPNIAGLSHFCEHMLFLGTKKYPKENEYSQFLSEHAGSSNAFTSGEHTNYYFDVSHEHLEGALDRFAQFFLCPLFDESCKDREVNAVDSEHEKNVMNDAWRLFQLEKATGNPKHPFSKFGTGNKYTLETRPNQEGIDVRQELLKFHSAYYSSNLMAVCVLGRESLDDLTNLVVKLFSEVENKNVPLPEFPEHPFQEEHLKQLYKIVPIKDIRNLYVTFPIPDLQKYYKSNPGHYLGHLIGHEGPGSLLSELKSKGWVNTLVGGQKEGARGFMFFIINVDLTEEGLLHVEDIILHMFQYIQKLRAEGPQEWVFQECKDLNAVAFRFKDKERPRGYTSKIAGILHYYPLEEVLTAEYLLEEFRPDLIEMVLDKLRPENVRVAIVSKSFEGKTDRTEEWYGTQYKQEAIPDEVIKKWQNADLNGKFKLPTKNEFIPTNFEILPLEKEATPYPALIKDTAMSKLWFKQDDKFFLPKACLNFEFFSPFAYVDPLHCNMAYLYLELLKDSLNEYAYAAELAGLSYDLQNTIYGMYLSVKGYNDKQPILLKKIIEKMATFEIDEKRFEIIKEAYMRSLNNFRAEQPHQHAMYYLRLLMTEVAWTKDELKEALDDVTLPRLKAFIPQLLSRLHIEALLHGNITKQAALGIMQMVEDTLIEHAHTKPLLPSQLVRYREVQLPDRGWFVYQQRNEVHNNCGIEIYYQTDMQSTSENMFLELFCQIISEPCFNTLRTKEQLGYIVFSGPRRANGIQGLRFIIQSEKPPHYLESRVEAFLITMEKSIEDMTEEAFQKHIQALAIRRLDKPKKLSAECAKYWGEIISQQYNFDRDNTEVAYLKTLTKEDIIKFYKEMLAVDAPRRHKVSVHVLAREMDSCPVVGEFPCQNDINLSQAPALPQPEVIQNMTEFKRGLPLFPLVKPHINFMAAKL

[2] = biological target: Large T antigen (Simian virus 40, UniProt P03070); format: functional, Betapolyomavirus macacae;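 further: Confirmatory-stage PubChem screen for compounds that inhibit SV40 T antigen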
Chain of Large T antigen (P03070 whole entry): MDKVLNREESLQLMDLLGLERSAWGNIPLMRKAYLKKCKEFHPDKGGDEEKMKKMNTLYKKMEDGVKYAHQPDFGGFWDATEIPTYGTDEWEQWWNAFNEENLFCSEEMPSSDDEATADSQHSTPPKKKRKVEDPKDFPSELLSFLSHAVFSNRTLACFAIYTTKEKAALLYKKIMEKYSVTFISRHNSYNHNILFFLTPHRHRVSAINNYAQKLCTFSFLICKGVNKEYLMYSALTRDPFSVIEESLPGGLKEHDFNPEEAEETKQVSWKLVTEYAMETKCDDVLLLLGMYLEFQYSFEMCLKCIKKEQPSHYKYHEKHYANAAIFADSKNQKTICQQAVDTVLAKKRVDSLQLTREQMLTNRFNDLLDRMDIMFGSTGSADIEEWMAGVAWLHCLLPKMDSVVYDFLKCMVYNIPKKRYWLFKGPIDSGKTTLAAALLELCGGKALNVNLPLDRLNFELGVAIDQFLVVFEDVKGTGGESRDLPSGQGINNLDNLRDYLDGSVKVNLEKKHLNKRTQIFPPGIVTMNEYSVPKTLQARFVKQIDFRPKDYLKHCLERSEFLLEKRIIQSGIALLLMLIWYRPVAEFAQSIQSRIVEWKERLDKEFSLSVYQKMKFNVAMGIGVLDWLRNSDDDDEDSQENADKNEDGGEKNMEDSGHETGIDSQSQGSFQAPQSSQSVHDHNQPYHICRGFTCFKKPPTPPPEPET

[3] = biological target: T2, Bcl-2-related protein A1 (Mus musculus, UniProt Q07440); format: functional;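 further: confirmatory dose–response counterscreen on Bfl-1, used to check hits from a UBC13 polyubiquitin inhibitor campaign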
T2 sequence (Q07440 whole entry): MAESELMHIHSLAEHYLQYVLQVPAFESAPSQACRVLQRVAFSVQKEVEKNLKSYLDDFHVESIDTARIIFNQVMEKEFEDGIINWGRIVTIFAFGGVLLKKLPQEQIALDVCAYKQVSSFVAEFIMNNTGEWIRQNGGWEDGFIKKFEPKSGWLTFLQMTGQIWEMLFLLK

[4] = HeLa 4N DNA content increase, dose response, cell-based, IC50 (AID 1117351); format: functional
[5] = test system: INS1; test: beta cell apoptosis inhibitors, cytokine rescue, dose response, luminescence, retest (AID 449756); format: functional, cell-based; settings: Rattus norvegicus;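 further: cell death triggered by IL-1 beta plus TNF-alpha plus IFN-gamma mixture; protective hits raise ATP signal compared with cytokine alone wells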
[6] = biological target: T1, Insulin-degrading enzyme; test: activators of endogenous IDE in HEK cells, dose response, cell-based, fluorescence polarization (AID 588439); format: functional
[7] = biological target: Dual specificity tyrosine-phosphorylation-regulated kinase 1A (Rattus norvegicus, UniProt Q63470); format: biochemical, Homo sapiens
[8] = half-maximal inhibitory concentration for glucagon-like peptide-1 release, STC-1 cell line, dose-response (AID 1117345); format: functional, cell-based
[9] = biological target: Apoptotic protease-activating factor 1 (Homo sapiens, UniProt O14727); format: functional
Chain of Apoptotic protease-activating factor 1 (O14727 whole entry): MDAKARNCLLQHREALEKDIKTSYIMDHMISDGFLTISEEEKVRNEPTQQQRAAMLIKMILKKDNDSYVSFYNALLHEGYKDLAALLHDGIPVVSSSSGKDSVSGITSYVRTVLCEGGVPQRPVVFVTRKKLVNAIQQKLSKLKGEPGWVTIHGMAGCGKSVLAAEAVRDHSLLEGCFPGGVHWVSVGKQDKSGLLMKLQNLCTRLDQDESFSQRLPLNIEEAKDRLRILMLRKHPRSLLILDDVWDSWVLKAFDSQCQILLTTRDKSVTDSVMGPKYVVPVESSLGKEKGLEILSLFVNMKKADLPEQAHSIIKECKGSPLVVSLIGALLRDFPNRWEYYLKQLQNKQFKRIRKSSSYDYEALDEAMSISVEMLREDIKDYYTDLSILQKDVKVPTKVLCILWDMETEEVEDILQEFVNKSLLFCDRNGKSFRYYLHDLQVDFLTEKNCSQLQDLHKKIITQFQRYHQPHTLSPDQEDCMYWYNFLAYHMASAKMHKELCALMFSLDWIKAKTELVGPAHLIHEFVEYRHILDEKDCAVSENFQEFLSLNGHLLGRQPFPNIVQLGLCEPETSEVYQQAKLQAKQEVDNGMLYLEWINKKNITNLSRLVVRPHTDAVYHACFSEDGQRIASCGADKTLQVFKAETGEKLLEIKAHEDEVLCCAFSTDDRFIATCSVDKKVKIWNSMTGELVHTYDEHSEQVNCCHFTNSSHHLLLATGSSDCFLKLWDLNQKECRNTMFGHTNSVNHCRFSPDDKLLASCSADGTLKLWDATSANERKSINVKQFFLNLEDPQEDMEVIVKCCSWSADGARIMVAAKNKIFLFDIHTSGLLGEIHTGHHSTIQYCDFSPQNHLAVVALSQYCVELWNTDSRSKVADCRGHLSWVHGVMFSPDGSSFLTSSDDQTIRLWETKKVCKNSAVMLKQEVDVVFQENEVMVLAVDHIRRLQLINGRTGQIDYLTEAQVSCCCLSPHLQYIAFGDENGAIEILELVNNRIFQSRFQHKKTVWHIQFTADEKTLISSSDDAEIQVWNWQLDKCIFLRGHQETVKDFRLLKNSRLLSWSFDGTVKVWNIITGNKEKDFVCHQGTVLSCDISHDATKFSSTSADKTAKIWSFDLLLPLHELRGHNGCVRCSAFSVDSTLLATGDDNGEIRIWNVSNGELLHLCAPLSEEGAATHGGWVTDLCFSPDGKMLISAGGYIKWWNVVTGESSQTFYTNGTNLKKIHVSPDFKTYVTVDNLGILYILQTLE

[10] = test system: HEK293; test: optical interference in Abeta FP readout, dose response, artefact control for IDE activator project, biochemical, fluorescence polarization (AID 588442); format: functional, cell-based; settings: Homo sapiens
[11] = HeLa 2N DNA content increase, dose response, cell-based, IC50 (AID 1117349); format: functional
[12] = test system: HEK293; test: HEK cell cytotoxicity by LDH release, dose response, cytotoxicity control for IDE activator project, fluorescence, HEK cells (AID 588440); format: functional, cell-based; settings: Homo sapiens;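 further: cytotoxicity by LDH release measuring loss of membrane integrity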
[13] = biological target: T3, Ubiquitin-conjugating enzyme E2 N (Homo sapiens, UniProt P61088); format: functional
T3 sequence (P61088 whole entry): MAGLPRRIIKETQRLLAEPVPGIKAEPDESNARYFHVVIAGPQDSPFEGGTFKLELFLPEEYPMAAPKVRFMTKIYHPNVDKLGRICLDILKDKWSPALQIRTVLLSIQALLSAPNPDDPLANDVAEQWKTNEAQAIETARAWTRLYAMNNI

[14] = biological target: T3, Ubiquitin-conjugating enzyme E2 N; format: functional; remark: listed apart in the source
[15] = biological target: Heat shock protein HSP 90-alpha (Homo sapiens, UniProt P07900); format: functional, organism-based
[16] = Glucagon-like peptide 1 release potency, NCI-H716 cell line, dose-response, half-maximal inhibitory concentration (AID 1117344); format: functional, cell-based
[17] = cytotoxicity in KRAS-transformed pancreatic duct cells, primary screen, cell-based, fluorescence, HTS (AID 431); format: functional; settings: Homo sapiens;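 further: cell line used: HPDE-C7K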
[18] = inhibitors of intracellular T. cruzi replication, confirmation, NIH3T3 host cells, beta-gal luminescence (AID 2044); format: functional, cell-based;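 further: intracellular parasites grown in NIH/3T3 mouse fibroblasts as host cells; luminescent beta-galactosidase reporter signal from transgenic T. cruzi replicating inside host cells; inhibitors lower the luminescence signal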
[19] = biological target: T4, Replicative DNA helicase DnaB (Mycobacterium tuberculosis, UniProt P9WMR3); test: DnaB intein splicing inhibitors, dose response, biochemical, cell-free fluorescence (AID 449749); format: functional
T4 sequence (P9WMR3 whole entry): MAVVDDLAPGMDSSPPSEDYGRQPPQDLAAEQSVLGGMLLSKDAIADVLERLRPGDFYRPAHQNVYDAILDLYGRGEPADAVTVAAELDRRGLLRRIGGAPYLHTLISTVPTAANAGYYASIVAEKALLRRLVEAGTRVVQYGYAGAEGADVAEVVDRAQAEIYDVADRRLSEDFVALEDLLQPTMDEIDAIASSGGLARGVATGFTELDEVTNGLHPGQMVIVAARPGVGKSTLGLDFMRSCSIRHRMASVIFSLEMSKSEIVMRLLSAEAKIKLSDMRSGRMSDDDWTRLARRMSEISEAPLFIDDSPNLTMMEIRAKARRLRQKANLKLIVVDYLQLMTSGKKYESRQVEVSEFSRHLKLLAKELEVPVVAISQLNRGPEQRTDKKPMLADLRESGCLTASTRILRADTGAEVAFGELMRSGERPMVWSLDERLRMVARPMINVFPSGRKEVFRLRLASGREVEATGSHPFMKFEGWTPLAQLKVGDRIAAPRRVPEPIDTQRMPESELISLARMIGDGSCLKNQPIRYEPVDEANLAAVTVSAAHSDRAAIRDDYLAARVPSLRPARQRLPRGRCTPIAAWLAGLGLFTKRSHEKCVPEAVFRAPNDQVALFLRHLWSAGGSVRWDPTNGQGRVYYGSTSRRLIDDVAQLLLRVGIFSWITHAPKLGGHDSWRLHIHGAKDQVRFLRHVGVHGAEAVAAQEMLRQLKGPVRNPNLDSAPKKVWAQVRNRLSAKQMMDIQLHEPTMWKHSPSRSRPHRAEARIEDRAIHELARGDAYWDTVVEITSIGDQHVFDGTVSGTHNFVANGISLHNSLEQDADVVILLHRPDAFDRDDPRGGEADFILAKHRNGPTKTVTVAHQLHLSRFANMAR

[20] = biological target: Beta Lactamase (Pseudomonas aeruginosa, UniProt Q932Y6); test: beta-lactamase reporter inhibitor potency, dose response, artefact control for TLR9-MyD88 binding inhibitor project, BLA reporter cells, FRET fluorescence (AID 588341); format: cell-based;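 further: cell based assay in CHO-K1 cells stably expressing beta-lactamase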
Chain of Beta Lactamase (Q932Y6 whole entry): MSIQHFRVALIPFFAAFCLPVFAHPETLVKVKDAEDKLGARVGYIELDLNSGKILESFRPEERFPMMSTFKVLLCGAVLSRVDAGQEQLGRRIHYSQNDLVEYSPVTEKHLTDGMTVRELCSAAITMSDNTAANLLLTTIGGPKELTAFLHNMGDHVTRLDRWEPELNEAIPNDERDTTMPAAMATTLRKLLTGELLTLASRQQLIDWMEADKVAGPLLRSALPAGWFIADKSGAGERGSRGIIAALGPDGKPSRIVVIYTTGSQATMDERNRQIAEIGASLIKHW

[21] = biological target: T5, Heat shock factor protein 1 (Mus musculus, UniProt P38532); test: inhibition of MG132-induced HSE-luciferase signal, confirmation, cell-based, NIH3T3, luminescence, dose retest (AID 2382); format: functional;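 further: NIH3T3 fibroblasts with HSF1-driven luciferase reporter stressed by proteasome inhibitor MG132; luminescence from HSF1-driven luciferase expression after 8 hours of MG132 stress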
T5 sequence (P38532 whole entry): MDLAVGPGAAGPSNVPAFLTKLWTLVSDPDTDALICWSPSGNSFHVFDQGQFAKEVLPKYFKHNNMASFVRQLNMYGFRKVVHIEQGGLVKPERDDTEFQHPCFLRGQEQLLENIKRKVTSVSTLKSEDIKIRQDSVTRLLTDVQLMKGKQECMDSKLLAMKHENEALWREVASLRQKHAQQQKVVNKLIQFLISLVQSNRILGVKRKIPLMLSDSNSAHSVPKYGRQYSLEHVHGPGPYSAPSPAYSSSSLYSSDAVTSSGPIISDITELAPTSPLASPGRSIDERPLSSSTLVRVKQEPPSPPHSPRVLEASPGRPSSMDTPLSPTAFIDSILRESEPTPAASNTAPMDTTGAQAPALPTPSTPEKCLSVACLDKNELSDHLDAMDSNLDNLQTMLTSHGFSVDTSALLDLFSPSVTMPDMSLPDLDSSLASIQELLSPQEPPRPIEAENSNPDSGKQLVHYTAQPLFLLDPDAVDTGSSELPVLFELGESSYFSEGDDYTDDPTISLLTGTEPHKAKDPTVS

[22] = test system: CHO; test: cytotoxicity in TLR9-MyD88 CHO cells, dose response, cytotoxicity control for TLR9-MyD88 binding inhibitor project, cell-based, luminescence (AID 588339); format: functional, hamster; settings: Cricetulus griseus;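 further: CHO cells stably coexpressing TLR9 and MyD88 fusions from primary screen; compound exposure lasted 48 hours before viability readout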
[23] = control 3'UTR Renilla luciferase suppression, dose response, counter-screen for Shn3 inhibitor project, cell-based, Clone20-Shn3RL, cherry-picked (AID 624133); format: functional
[24] = biological target: T6, Protein RecA (Mycobacterium tuberculosis, UniProt P9WHJ3); test: Fluorescence Cell-Free Homogeneous Dose Retest to Identify Inhibitors of RecA-Intein Splicing Activity. [Related pubchem assays (depositor defined):AID2097, AID2223, AID489010, AID492950]; format: functional
T6 sequence (P9WHJ3 whole entry): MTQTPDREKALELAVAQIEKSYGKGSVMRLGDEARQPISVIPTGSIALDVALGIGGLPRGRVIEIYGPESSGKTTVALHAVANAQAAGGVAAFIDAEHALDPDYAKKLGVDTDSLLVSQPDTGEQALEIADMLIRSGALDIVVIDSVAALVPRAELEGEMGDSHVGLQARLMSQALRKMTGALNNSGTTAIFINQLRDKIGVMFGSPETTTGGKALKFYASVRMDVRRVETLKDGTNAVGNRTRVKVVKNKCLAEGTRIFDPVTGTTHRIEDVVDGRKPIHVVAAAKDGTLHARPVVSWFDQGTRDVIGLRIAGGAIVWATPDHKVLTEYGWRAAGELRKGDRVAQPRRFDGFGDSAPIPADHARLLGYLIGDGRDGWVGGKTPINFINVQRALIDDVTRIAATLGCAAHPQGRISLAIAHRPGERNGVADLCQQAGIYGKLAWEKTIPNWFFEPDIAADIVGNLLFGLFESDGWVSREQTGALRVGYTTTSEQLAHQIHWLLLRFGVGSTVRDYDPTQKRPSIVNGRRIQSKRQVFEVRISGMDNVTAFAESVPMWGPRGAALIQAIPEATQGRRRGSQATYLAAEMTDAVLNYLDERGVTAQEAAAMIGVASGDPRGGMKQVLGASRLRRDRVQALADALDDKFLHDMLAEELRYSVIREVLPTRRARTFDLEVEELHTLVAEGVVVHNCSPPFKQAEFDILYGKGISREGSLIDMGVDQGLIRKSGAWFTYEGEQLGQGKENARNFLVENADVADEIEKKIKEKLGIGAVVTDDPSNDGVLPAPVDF

[25] = biological target: Sphingosine 1-phosphate receptor 1 (Homo sapiens, UniProt P21453); format: functional;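 further: Tango beta-arrestin reporter U2OS cells stimulated with S1P near its EC80; inhibitor potency meaning antagonism of receptor activation by the natural agonist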
Chain of Sphingosine 1-phosphate receptor 1 (P21453 whole entry): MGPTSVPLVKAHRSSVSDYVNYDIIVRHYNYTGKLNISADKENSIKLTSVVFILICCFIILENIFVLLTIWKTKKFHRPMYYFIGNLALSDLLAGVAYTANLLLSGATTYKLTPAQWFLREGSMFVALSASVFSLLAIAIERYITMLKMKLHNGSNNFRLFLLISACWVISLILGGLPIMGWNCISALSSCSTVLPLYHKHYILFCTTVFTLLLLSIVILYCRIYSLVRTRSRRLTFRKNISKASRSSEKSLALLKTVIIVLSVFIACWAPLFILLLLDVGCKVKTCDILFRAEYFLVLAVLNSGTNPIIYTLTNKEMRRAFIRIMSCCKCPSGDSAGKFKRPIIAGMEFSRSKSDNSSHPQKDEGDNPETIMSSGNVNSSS

[26] = biological target: DNA damage-inducible transcript 3 protein (Mus musculus, UniProt P35639); format: functional, Cricetulus griseus
Chain of DNA damage-inducible transcript 3 protein (P35639 whole entry): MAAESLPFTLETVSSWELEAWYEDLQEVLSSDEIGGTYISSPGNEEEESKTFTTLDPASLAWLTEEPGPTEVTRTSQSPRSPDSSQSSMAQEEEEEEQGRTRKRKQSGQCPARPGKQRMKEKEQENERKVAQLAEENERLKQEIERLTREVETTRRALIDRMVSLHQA

[27] = microbe, parasite or virus in culture; format: functional; settings: Mycobacterium tuberculosis
[28] = Shn3 3'UTR reporter inhibitors, dose response, cell-based, Clone20 osteoblasts, firefly luciferase, cherry-picked (AID 624132); format: functional;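 further: firefly luciferase luminescence from reporter carrying the Shn3 3'UTR in osteoblasts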
[29] = HepG2 cell cytotoxicity, dose response, cytotoxicity control for Shn3 inhibitor project, CellTiter-Glo, cherry-picked (AID 624134); format: functional, cell-based
[30] = biological target: Sphingosine 1-phosphate receptor 4 (Homo sapiens, UniProt O95977); test: Fluorescence dose response cell-based high throughput screening assay for antagonists of the Sphingosine 1-Phosphate Receptor 4 (S1P4). [Related pubchem assays: 1524 (Confirmation in triplicates.), 1510 (Primary screen.)]; format: functional
Chain of Sphingosine 1-phosphate receptor 4 (O95977 whole entry): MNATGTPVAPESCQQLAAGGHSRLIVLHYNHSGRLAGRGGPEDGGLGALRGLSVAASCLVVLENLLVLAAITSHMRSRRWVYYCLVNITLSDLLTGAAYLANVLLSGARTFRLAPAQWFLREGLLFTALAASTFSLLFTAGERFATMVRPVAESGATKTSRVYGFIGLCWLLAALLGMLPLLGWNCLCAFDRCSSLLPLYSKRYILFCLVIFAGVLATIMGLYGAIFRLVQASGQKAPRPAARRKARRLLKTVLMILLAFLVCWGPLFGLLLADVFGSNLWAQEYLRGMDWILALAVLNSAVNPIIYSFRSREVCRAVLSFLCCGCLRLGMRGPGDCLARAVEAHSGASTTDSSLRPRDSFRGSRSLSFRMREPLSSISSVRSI

[31] = cytotoxicity toward NIH3T3 fibroblasts, dose response, counter-screen, cell-based, ATP luminescence, mouse fibroblasts (AID 2010); format: functional;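 further: cells exposed to compound for about 90 hours before reading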
[32] = cytotoxicity in HPDE-C7 cells, cell-based, fluorescence, HTS (AID 430); format: functional; settings: Homo sapiens

CCCCCCCCCCCCCCCC[N+](C)(C)CCN(Cc1ccc(OC)cc1)c1ncccn1 [THONZONIUM BROMIDE]
EC50 [1]: 53.3 µM (inactive) | IC50 [2]: 15.4 µM (active) | IC50 [3]: 6.44 µM (active) | IC50 [4]: > 10 µM (inactive) | AC50 [5]: 2.54 µM (active) | EC50 [6]: > 54.7 µM (inactive) | AC50 [7]: 9.42 µM (active) | IC50 [8]: > 40 µM (inactive) | IC50 [9]: 8.37 µM (active) | EC50 [10]: > 55.9 µM (inactive) | IC50 [11]: > 10 µM (inactive) | IC50 [12]: 5.21 µM (active) | IC50 [13]: 2.99 µM (active) | IC50 [14]: 2.86 µM (active) | AC50 [15]: 6.06 µM (active) | IC50 [16]: 17.8 µM (inactive)

CS(=O)(=O)c1nc(-c2ccccc2)cc(C(F)(F)F)n1
EC50 [17]: 4.8 µM (active) | EC50 [18]: 2.21 µM (active) | AC50 [19]: 4.91 µM (active) | IC50 [20]: 29.1 µM (inactive) | EC50 [21]: 8.84 µM (inconclusive) | IC50 [22]: 3.23 µM (active) | AC50 [23]: 7.07 µM (active) | EC50 [24]: 5.53 µM (active) | IC50 [25]: 16.7 µM (not active) | Absolute IC50 (CHOP) [26]: 10 µM | CC50 [27]: 30.7 µM (active) | AC50 [28]: 1.53 µM (active) | AC50 [29]: 16 µM (active) | IC50 [30]: 1.09 µM (active) | EC50 [31]: 2.55 µM (active) | EC50 [32]: 4.36 µM (active)

— ChEMBL document CHEMBL1201862, “PubChem BioAssay data set” (2004)
